The numbers were not newly measured in patent publication US20220098283A1, “ACE2- and TMPRSS2-Targeted Compositions and Methods for Treating COVID-19” (priority 2020, published 2022), which cites them from elsewhere.

The target in the series is hACE2 (Homo sapiens, UniProt Q9BYF1). To be noted: 100 μM angiotensin II, 37° C., 2 hours.

The structures appear in SMILES notation. Where two headings read alike, the source gives them in different places.

Chain of hACE2 (Q9BYF1 18-805): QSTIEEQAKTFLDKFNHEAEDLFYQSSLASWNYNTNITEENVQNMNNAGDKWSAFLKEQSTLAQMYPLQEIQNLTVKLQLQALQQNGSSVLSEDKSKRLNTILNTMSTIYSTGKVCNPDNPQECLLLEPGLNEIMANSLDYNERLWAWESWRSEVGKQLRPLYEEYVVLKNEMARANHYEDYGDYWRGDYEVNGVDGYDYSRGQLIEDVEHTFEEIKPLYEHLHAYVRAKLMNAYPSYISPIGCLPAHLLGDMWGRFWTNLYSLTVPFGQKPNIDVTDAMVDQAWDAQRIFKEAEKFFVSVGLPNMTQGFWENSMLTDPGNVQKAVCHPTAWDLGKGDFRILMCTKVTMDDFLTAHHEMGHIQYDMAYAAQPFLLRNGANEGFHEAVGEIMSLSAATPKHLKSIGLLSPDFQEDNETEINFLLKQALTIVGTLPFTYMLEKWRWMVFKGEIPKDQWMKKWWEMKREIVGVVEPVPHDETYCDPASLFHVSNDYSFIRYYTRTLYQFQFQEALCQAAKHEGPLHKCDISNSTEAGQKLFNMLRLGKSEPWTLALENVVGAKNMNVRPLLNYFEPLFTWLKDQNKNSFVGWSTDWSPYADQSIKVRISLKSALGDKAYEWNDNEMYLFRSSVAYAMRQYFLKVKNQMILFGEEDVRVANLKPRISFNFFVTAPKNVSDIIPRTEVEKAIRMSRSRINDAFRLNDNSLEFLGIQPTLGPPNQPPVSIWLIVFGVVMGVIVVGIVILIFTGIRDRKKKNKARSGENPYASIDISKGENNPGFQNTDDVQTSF

As for `O=C(O)CN(CCN(CC(=O)O)CC(=O)O)CC(=O)O` [EDTA], under “inhibitor 10 mM”, the “inhibition of hACE2 activity (angiotensin II cleavage)” value is on record as “inhibits hACE2 activity”.

Take `O=C(O)CC(Cc1ccccc1)C(=O)O` (centres unmarked) [benzyl succinate]: where the note is “inhibitor 100 μM”, the “inhibition of hACE2 activity (angiotensin II cleavage)” value is “none of lisinopril, captopril, enalaprilat, and benzyl succinate (a carboxypeptidase A inhibitor) inhibits hACE2 activity”.
